Measurements from US20200231638A1, “STABILIZED ANTI-MICROBIAL PEPTIDES” (priority 2015, published 2020).
Bridge positions count the residues as written; N and C are the ends. Square brackets hold non-standard residues; d marks the D form. Peptide text beside a SMILES is read from it. R8 = C=CCCCCCC[C@@](C)(N)C(=O)O; S5 = C=CCCC[C@](C)(N)C(=O)O; Nle = CCCC[C@H](N)C(=O)O

How the values were obtained:
B. cereus = type: cell-based, Bacillus cereus
Protocol: (§1) Antimicrobial Activity Assay:
(§2) The following microbroth dilution protocol was adapted to determine the minimum inhibitory concentration (MIC) of each peptide. First, Mueller-Hinton broth (MHB) was passed through an anion exchange column to remove polyanionic species and generate refined MHB. […] Briefly, bacterial cells was grown overnight in refined MHB at 37° C. and then diluted and allowed to grow again for several hours. Serial dilutions of peptide stocks in water (10 μl) were prepared using clear round-bottom polypropylene 96-well plates. Then 90 μl of bacteria in refined MHB was added to give a final inoculum of 5×10^5 CFU/ml. The plates were then covered with porous tape to reduce evaporation, and incubated for 20-24 hours at 37° C. The MIC is the minimum peptide concentration at which no visible growth was observed.

human red blood cells = type: cell-based; conditions: for % Hemolysis at 25 μg/ml: red cells of human, 1 h
Protocol: FIG. 5 is a series of line graphs depicting the hemolytic activity of magainin II and stapled analogues. Peptides were incubated with 1% (v/v) human red blood cells in phosphate-buffered solution for 1 hour at 37° C. and then the supernatant was isolated and the amount of hemoglobin released was measured at 540 nm. % hemolysis was calculated relative to an untreated control.
Hemolytic Activity Assay:
For the determination of hemolytic activity, human blood samples were centrifuged to isolate red blood cells (RBCs), which are then washed and suspended in phosphate-buffered saline to yield a 1% (v/v) suspension. The suspension was then added to serial dilutions of peptide stocks in water in clear round-bottom polypropylene 96-well plates and the plates were incubated for 1 hour at 37° C. After incubation, the plates were centrifuged and the supernatant was isolated to determine the amount of hemoglobin released using a spectrophotometer (570 nm), according to the equation: % Hemolysis=(Treated Absorbance−Untreated Control Absorbance)/(1% Triton-X100 Treated Absorbance−Untreated Control Absorbance). The minimum hemolytic concentration (MHC) is the peptide concentration at which there is less than 1% hemoglobin release.

P. aeruginosa = type: cell-based, Pseudomonas aeruginosa
Protocol: as §1, §2

E. coli = type: cell-based, Escherichia coli
Protocol: as §1, §2

S. aureus = type: cell-based, Staphylococcus aureus
Protocol: as §1, §2

Row | SMILES | MIC B. cereus (B. cereus) | % Hemolysis at 25 μg/ml (human red blood cells) | MIC P. aeruginosa (P. aeruginosa) | MIC E. coli (E. coli) | MIC S. aureus (S. aureus) | hemolytic activity (in words) (human red blood cells)
1 | CCCC[C@H](NC(=O)[C@@H](NC(=O)[C@H](CCC(=O)O)NC(=O)CNC(=O)[C@@H](NC(=O)[C@H](Cc1ccccc1)NC(=O)[C@H](C)NC(=O)[C@]1(C)CCCC=CCCC[C@](C)(NC(=O)[C@H](C)NC(=O)[C@H](CO)NC(=O)[C@H](Cc2c[nH]cn2)NC(=O)[C@H](CC(C)C)NC(=O)[C@H](Cc2ccccc2)NC(=O)[C@H](CCCCN)NC(=O)CNC(=O)[C@@H](NC(=O)CN)[C@@H](C)CC)C(=O)N[C@@H](CCCCN)C(=O)N[C@@H](Cc2ccccc2)C(=O)NCC(=O)N1)C(C)C)[C@@H](C)CC)C(=O)N[C@@H](CC(N)=O)C(=O)N[C@@H](CO)C(N)=O [Mag(i + 4)9] (H-GIGKFLHSA[S5]KFG[S5]AFVGEI[Nle]NS-NH2; staple 10-14) | 12.5 µg/mL | 66.9% | >50 µg/mL | 6.2 µg/mL | >50 µg/mL | 
2 | CC[C@H](C)[C@H](NC(=O)CN)C(=O)NCC(=O)N[C@@H](CCCCN)C(=O)N[C@@H](Cc1ccccc1)C(=O)N[C@@H](CC(C)C)C(=O)N[C@@H](Cc1c[nH]cn1)C(=O)N[C@@H](CO)C(=O)N[C@@H](C)C(=O)N[C@@H](CCCCN)C(=O)N[C@@H](CCCCN)C(=O)N[C@@H](Cc1ccccc1)C(=O)NCC(=O)N[C@@H](CCCCN)C(=O)N[C@@H](C)C(=O)N[C@@H](Cc1ccccc1)C(=O)N[C@@]1(C)CCCC=CCCC[C@@](C)(C(=O)N[C@@H](CC(N)=O)C(=O)N[C@@H](CO)C(N)=O)NC(=O)[C@H]([C@@H](C)CC)NC(=O)[C@H](CCC(=O)O)NC(=O)CNC1=O [Mag(i + 4)16, GIGKFLHSAKKFGKAFXGEIXNS] (H-GIGKFLHSAKKFGKAF[S5]GEI[S5]NS-NH2; staple 17-21) | 12.5 µg/mL | 7.8% | 6.2 µg/mL | 3.1 µg/mL | 50 µg/mL | 
3 | CCCC[C@H](NC(=O)[C@]1(C)CCCC=CCCC[C@](C)(NC(=O)[C@H](C)NC(=O)[C@H](CCCCN)NC(=O)CNC(=O)[C@H](Cc2ccccc2)NC(=O)[C@H](CCCCN)NC(=O)[C@H](CCCCN)NC(=O)[C@H](C)NC(=O)[C@H](CO)NC(=O)[C@H](Cc2c[nH]cn2)NC(=O)[C@H](CC(C)C)NC(=O)[C@H](Cc2ccccc2)NC(=O)[C@H](CCCCN)NC(=O)CNC(=O)[C@H](CCC(=O)O)NC(=O)CN)C(=O)N[C@@H](C(C)C)C(=O)NCC(=O)N[C@@H](CCC(=O)O)C(=O)N1)C(=O)N[C@@H](CC(N)=O)C(=O)N[C@@H](CO)C(N)=O [Mag(i + 4)15(I2E), GEGKFLHSAKKFGKAXVGEXBNS] (H-GEGKFLHSAKKFGKA[S5]VGE[S5][Nle]NS-NH2; staple 16-20) | >50 µg/mL | 3.6% | >50 µg/mL | 12.5 µg/mL | >50 µg/mL | 
4 | CCCC[C@H](NC(=O)[C@@H](NC(=O)[C@H](CCC(=O)O)NC(=O)CNC(=O)[C@@H](NC(=O)[C@H](Cc1ccccc1)NC(=O)[C@H](C)NC(=O)[C@H](CCCCN)NC(=O)CNC(=O)[C@H](Cc1ccccc1)NC(=O)[C@H](CCCCN)NC(=O)[C@H](CCCCN)NC(=O)[C@H](C)NC(=O)[C@H](CO)NC(=O)[C@H](Cc1c[nH]cn1)NC(=O)[C@H](CC(C)C)NC(=O)[C@]1(C)CCCC=CCCC[C@](C)(N)C(=O)N[C@@H]([C@@H](C)CC)C(=O)NCC(=O)N[C@@H](CCCCN)C(=O)N1)C(C)C)[C@@H](C)CC)C(=O)N[C@@H](CC(N)=O)C(=O)N[C@@H](CO)C(N)=O [Mag(i + 4)0, XIGKXLHSAKKFGKAFVGEIBNS] (H-[S5]IGK[S5]LHSAKKFGKAFVGEI[Nle]NS-NH2; staple 1-5) | 12.5 µg/mL | 4.8% | 50 µg/mL | 3.1 µg/mL | >50 µg/mL | 
5 | CCCC[C@H](NC(=O)[C@]1(C)CCCC=CCCC[C@](C)(NC(=O)[C@H](C)NC(=O)[C@H](CCCCN)NC(=O)CNC(=O)[C@H](Cc2ccccc2)NC(=O)[C@H](CCCCN)NC(=O)[C@H](CCCCN)NC(=O)[C@H](C)NC(=O)[C@H](CO)NC(=O)[C@H](Cc2c[nH]cn2)NC(=O)[C@H](CC(C)C)NC(=O)[C@H](Cc2ccccc2)NC(=O)[C@H](CCCCN)NC(=O)CNC(=O)[C@@H](NC(=O)CN)[C@@H](C)CC)C(=O)N[C@@H](C(C)C)C(=O)NCC(=O)N[C@@H](CCC(=O)O)C(=O)N1)C(=O)N[C@@H](CC(N)=O)C(=O)N[C@@H](CCC(=O)O)C(N)=O [Mag(i + 4)15(S23E), GIGKFLHSAKKFGKAXVGEXBNE] (H-GIGKFLHSAKKFGKA[S5]VGE[S5][Nle]NE-NH2; staple 16-20) | 12.5 µg/mL | 4.9% | 12.5 µg/mL | 3.1 µg/mL | 25 µg/mL | 
6 | CCCC[C@H](NC(=O)[C@]1(C)CCCC=CCCC[C@](C)(NC(=O)[C@H](C)NC(=O)[C@H](CCCCN)NC(=O)CNC(=O)[C@H](Cc2ccccc2)NC(=O)[C@H](CCCCN)NC(=O)[C@H](CCCCN)NC(=O)[C@H](C)NC(=O)[C@H](CO)NC(=O)[C@H](Cc2c[nH]cn2)NC(=O)[C@H](CCC(=O)O)NC(=O)[C@H](Cc2ccccc2)NC(=O)[C@H](CCCCN)NC(=O)CNC(=O)[C@@H](NC(=O)CN)[C@@H](C)CC)C(=O)N[C@@H](C(C)C)C(=O)NCC(=O)N[C@@H](CCC(=O)O)C(=O)N1)C(=O)N[C@@H](CC(N)=O)C(=O)N[C@@H](CO)C(N)=O [Mag(i + 4)15(L6E), GIGKFEHSAKKFGKAXVGEXBNS] (H-GIGKFEHSAKKFGKA[S5]VGE[S5][Nle]NS-NH2; staple 16-20) | >50 µg/mL | 1.1% | >50 µg/mL | 50 µg/mL | >50 µg/mL | 
7 | CCCC[C@H](NC(=O)[C@@H](NC(=O)[C@H](CCC(=O)O)NC(=O)CNC(=O)[C@@H](NC(=O)[C@H](Cc1ccccc1)NC(=O)[C@H](C)NC(=O)[C@H](CCCCN)NC(=O)[C@]1(C)CCCC=CCCC[C@](C)(NC(=O)[C@H](CO)NC(=O)[C@H](Cc2c[nH]cn2)NC(=O)[C@H](CC(C)C)NC(=O)[C@H](Cc2ccccc2)NC(=O)[C@H](CCCCN)NC(=O)CNC(=O)[C@@H](NC(=O)CN)[C@@H](C)CC)C(=O)N[C@@H](CCCCN)C(=O)N[C@@H](CCCCN)C(=O)N[C@@H](Cc2ccccc2)C(=O)N1)C(C)C)[C@@H](C)CC)C(=O)N[C@@H](CC(N)=O)C(=O)N[C@@H](CO)C(N)=O [Mag(i + 4)8, GIGKFLHSXKKFXKAFVGEIBNS] (H-GIGKFLHS[S5]KKF[S5]KAFVGEI[Nle]NS-NH2; staple 9-13) | 3.1 µg/mL | 74.6% | 3.1 µg/mL | 3.1 µg/mL | 12.5 µg/mL | indiscriminate lytic activity
8 | CCCC[C@H](NC(=O)[C@@H](NC(=O)[C@H](CCC(=O)O)NC(=O)CNC(=O)[C@@H](NC(=O)[C@]1(C)CCCC=CCCCCCC[C@@](C)(NC(=O)[C@H](CO)NC(=O)[C@H](Cc2c[nH]cn2)NC(=O)[C@H](CC(C)C)NC(=O)[C@H](Cc2ccccc2)NC(=O)[C@H](CCCCN)NC(=O)CNC(=O)[C@@H](NC(=O)CN)[C@@H](C)CC)C(=O)N[C@@H](CCCCN)C(=O)N[C@@H](CCCCN)C(=O)N[C@@H](Cc2ccccc2)C(=O)NCC(=O)N[C@@H](CCCCN)C(=O)N[C@@H](C)C(=O)N1)C(C)C)[C@@H](C)CC)C(=O)N[C@@H](CC(N)=O)C(=O)N[C@@H](CO)C(N)=O [Mag(i + 7)8] (H-GIGKFLHS[R8]KKFGKA[S5]VGEI[Nle]NS-NH2; staple 9-16 (inferred); N-terminus and C-terminus assumed) | 3.1 µg/mL | 85.4% | 3.1 µg/mL | 1.6 µg/mL | 6.2 µg/mL | 
